Consider three compounds from publication PMC7508162 (Frontiers in Pharmacology, 2020).

SMILES strings stand for the structures. Where only a bound is given, the exact number is not on record here.

One experiment has as its target T1, human NPP3 (Homo sapiens, UniProt O14638).
T1 construct: the catalytic domains of the enzymes were amplified and sub-cloned into the expression vector pACGP67 A/B; 9xHis (C); made in house; host or cells: Sf9 insect cells (baculovirus, pACGP67 A/B)
T1 sequence (O14638 31-875 limits assumed): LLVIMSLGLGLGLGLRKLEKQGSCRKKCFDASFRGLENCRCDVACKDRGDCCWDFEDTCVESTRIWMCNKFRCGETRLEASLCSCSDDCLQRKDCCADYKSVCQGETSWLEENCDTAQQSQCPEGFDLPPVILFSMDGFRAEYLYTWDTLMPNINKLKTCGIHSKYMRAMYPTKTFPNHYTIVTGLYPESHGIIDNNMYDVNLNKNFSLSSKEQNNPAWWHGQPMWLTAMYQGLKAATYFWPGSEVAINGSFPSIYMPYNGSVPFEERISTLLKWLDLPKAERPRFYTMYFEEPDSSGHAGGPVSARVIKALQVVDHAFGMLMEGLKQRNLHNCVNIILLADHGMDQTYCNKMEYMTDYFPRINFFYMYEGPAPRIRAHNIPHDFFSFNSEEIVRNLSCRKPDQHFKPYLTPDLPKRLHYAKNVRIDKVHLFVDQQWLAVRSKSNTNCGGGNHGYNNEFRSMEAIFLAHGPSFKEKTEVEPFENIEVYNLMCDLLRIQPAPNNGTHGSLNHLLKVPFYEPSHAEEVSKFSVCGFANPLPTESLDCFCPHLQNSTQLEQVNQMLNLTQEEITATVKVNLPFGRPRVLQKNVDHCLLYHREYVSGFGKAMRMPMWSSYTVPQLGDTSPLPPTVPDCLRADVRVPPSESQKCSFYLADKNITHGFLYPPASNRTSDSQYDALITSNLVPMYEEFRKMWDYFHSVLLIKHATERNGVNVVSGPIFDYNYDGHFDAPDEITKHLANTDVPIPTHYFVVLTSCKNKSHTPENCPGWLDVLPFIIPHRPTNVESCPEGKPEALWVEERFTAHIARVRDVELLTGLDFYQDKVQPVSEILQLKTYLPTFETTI
In words: NPP3 assay with ϵ-NAD+ as substrate. It is filed as biochemical. Particulars: for inhibition at 10 µM: 10 µM test compound; for Ki: 20 µM ϵ-NAD+, read-out: Ki ± SEM. From the text:
(§1) The cDNAs of the human enzymes NPP1, NPP3, NPP5, CD38 and CD73 (Genbank accession no. NM_006258, NM_005021, NM_021572, NM_ 001775, and NM_002526, respectively) were obtained from Origene (Rockville, USA). Soluble enzymes were produced as previously reported with some modifications ([Lee et al., 2015]; [Junker et al., 2019]). Briefly, the catalytic domains of the enzymes were amplified and sub-cloned into the expression vector pACGP67 A/B modified with the addition of 9 x histidine tag (His-tag) at the C-terminus (except for NPP1). The plasmids were transfected in Sf9 insect cells using Cellfectin™ II Reagent (Thermo Fisher Scientific, MA, USA) and ProEasy™ baculovirus linearized DNA (Cat.#A10S, AB Vector, LLC). Protein expression was conducted for 48 h at 27°C. The signal peptide sequence of the expression vector shuttled the proteins into the supernatant. The supernatant medium was collected, and the enzymes were purified using HisPur™ Ni^2+-NTA spin columns according to the manufacturer’s protocol. The protein concentration was determined by the method previously described by [Lowry et al. (1951)].
The assays were performed in analogy to published procedures ([Blacher et al., 2015]). The enzymatic activity of human NPP3 and NPP5 (soluble forms expressed in insect cells and purified as previously described ([Lee et al., 2015]; [Lopez et al., 2020]) was measured using 1,N^6-etheno-nicotinamide adenine dinucleotide (ϵ-NAD^+) as a substrate, which is hydrolyzed to fluorescent 1,N^6-etheno-AMP (ϵ-AMP). The enzymatic reactions were performed in reaction buffer [10 mM N-cyclohexyl-2-aminoethanesulfonic acid (CHES), 2 mM CaCl2, and 1 mM MgCl2, pH 9.0 in H2O]. Purified NPP3 (90 ng) or NPP5 (400 ng), 20 µM of ϵ-NAD^+ and 10 µM of the test compound were incubated for 30 min at 37°C. The relative fluorescence at 270 nm excitation and 420 nm emission was detected by a fluorescence microplate reader (Flexstation, Medical Devices LLC. USA, Softmax Pro software to collect the data).

The next experiment deals with T2, human CD38 (Homo sapiens, UniProt P28907).
T2 construct: the catalytic domains of the enzymes were amplified and sub-cloned into the expression vector pACGP67 A/B; 9xHis (C); made in house; host or cells: Sf9 insect cells (baculovirus, pACGP67 A/B)
T2 sequence (P28907 43-300 limits assumed): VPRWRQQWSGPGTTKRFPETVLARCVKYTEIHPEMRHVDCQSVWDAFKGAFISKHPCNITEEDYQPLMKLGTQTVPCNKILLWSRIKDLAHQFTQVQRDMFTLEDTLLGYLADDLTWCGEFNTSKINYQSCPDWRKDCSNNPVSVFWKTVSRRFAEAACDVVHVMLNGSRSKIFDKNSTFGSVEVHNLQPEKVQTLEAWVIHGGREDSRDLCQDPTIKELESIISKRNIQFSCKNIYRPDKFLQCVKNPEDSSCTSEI
Briefly: CD38 assay. The class given is biochemical. The conditions noted are these: analogous to NPP3 and NPP5 assays; for Ki: read-out: Ki ± SEM.
From the text: as §1
The assay operation was analogous to the NPP3 and NPP5 assays. The enzymatic reactions were performed in 10 mM HEPES reaction buffer (pH 7.2) using 8 ng of human CD38 (expressed in Sf9 insect cells) in analogy to a published procedure ([Blacher et al., 2015]).

As to `CCN(CC)c1ncnc2c1ncn2[C@@H]1O[C@H](COP(=O)(O)OP(=O)(O)C(Br)(Br)P(=O)(O)O)[C@@H](O)[C@H]1O` [ARL67156, (Dibromo((((((2R,3S,4R,5R)-5-(6-(diethylamino)-9H-purin-9-yl)-3,4-dihydroxytetrahydrofuran-2-yl)methoxy)-(hydroxy)-phosphoryl)oxy)(hydroxy)phosphoryl)methyl)-phosphonic Acid, reference compound], on human NPP3, the inhibition at 10 µM came out at 13% and the inhibition constant (Ki) is over 10 µM. Also, on human CD38, the “% inhibition” value was found to be 0% and the Ki was over 10 µM.
On to `CCCCSc1nc2c(N)ncnc2n1[C@@H]1O[C@H](COP(=O)(O)OP(=O)(O)C(Br)(Br)P(=O)(O)O)[C@@H](O)[C@H]1O` [Compound 31, (((((((2R,3S,4R,5R)-5-(6-Amino-8-(butylthio)-9H-purin-9-yl)-3,4-dihydroxytetrahydrofuran-2-yl)methoxy)(hydroxy)-phosphoryl)oxy)(hydroxy)phosphoryl)dibromomethyl)-phosphonic Acid], for which, at human NPP3, 10 µM produced 8% inhibition and the Ki is over 10 µM. Besides, on human CD38, the “% inhibition” value was determined as 7% and the Ki was over 10 µM.
For the compound `CCCCNc1nc2c(NC)ncnc2n1[C@@H]1O[C@H](COP(=O)(O)OP(=O)(O)C(Br)(Br)P(=O)(O)O)[C@@H](O)[C@H]1O` [Compound 33, (Dibromo((((((2R,3S,4R,5R)-5-(8-(butylamino)-6-(methylamino)-9H-purin-9-yl)-3,4-dihydroxy-tetrahydrofuran-2-yl)methoxy)(hydroxy)phosphoryl)oxy)-(hydroxy)phosphoryl)methyl)-phosphonic Acid], on human NPP3, the inhibition at 10 µM was 8% and the Ki was over 10 µM. Further, on human CD38, the “% inhibition” value was 6% and the Ki was over 10 µM.

A word on the inhibition: it is the relative decrease from the control value, in per cent. By Ki is commonly meant a measure of affinity in units of concentration, obtained from inhibition or displacement. Broadly, the % inhibition is the change of the read-out against control, counted positive when it falls.
